Measured values: PubChem BioAssay AID248 (DTP/NCI, 2004)
Values joined by “and” are separate entries in the source; they are usually repeats but may differ in a detail not shown here. Equal values may be shown once. Inconclusive results and toxic doses are left out.

System: L1210 leukemia ip in BDF1 mice, survival T/C
Assay: NCI In Vivo Anticancer Drug Screen. Data for tumor model L1210 Leukemia (intraperitoneal) in B6D2F1 (BDF1) mice
Conditions: endpoint: mean survival time, higher = longer survival
In short: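 Tumor cells were implanted, animals were treated, and survival was followed. The result divides the treated measurement by the vehicle-control measurement.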

[1] = dose: 50.0 mg/kg/injection, schedule: Q01DX009 (ip), vehicle: saline
[2] = dose: 100.0 mg/kg/injection, schedule: Q01DX009 (ip), vehicle: saline
[3] = dose: 200.0 mg/kg/injection, schedule: Q01DX009 (ip), vehicle: saline
[4] = dose: 200.0 mg/kg/injection, schedule: Q01DX001 (ip), vehicle: carboxymethylcellulose (CMC)
[5] = dose: 100.0 mg/kg/injection, schedule: Q01DX009 (ip), vehicle: Klucel (hydroxypropylcellulose) (HPC)
[6] = dose: 100.0 mg/kg/injection, schedule: Q04DX003 (ip), vehicle: Klucel (hydroxypropylcellulose) (HPC)
[7] = dose: 200.0 mg/kg/injection, schedule: Q01DX009 (ip), vehicle: Klucel (hydroxypropylcellulose) (HPC)
[8] = dose: 200.0 mg/kg/injection, schedule: Q04DX003 (ip), vehicle: Klucel (hydroxypropylcellulose) (HPC)
[9] = dose: 400.0 mg/kg/injection, schedule: Q01DX009 (ip), vehicle: Klucel (hydroxypropylcellulose) (HPC)
[10] = dose: 400.0 mg/kg/injection, schedule: Q04DX003 (ip), vehicle: Klucel (hydroxypropylcellulose) (HPC)
[11] = dose: 100.0 mg/kg/injection, schedule: Q01DX009 (ip), vehicle: saline with Tween-80
[12] = dose: 200.0 mg/kg/injection, schedule: Q01DX009 (ip), vehicle: saline with Tween-80
[13] = dose: 100.0 mg/kg/injection, schedule: Q01DX001 (ip), vehicle: saline
[14] = dose: 200.0 mg/kg/injection, schedule: Q01DX001 (ip), vehicle: saline
[15] = dose: 400.0 mg/kg/injection, schedule: Q01DX001 (ip), vehicle: saline
[16] = dose: 50.0 mg/kg/injection, schedule: Q04DX002 (ip), vehicle: saline
[17] = dose: 100.0 mg/kg/injection, schedule: Q04DX002 (ip), vehicle: saline
[18] = dose: 50.0 mg/kg/injection, schedule: Q04DX003 (ip), vehicle: saline
[19] = dose: 100.0 mg/kg/injection, schedule: Q04DX003 (ip), vehicle: saline
[20] = dose: 200.0 mg/kg/injection, schedule: Q04DX003 (ip), vehicle: saline
[21] = dose: 400.0 mg/kg/injection, schedule: Q01DX009 (ip), vehicle: saline

## C=CCOP1(=O)OCC2OC(n3cnc4c(N)ncnc43)C(O)C2O1 (configuration not stated)
[1]
  T/C: 98 % of control
dose: 100.0 mg/kg/injection, schedule: Q01DX005 (ip), vehicle: saline
  T/C: 100 % of control
[2]
  T/C: 89 % of control
dose: 200.0 mg/kg/injection, schedule: Q01DX005 (ip), vehicle: saline
  T/C: 92 % of control
[3]
  T/C: 97 % of control

## Nc1nc(N)nc(CCCCc2nc(N)nc(N)n2)n1
[4]
  T/C: 90 % of control

## CNc1ccc(S(=O)(=O)O)cc1
[5]
  T/C: 98 % of control
[6]
  T/C: 104 % of control
[7]
  T/C: 103 % of control
[8]
  T/C: 102 % of control
[9]
  T/C: 101 % of control
[10]
  T/C: 98 % of control

## Cc1ccc2[nH]c(-c3ccccc3)c(-c3ccccc3)c2c1
[11]
  T/C: 95 % of control
[12]
  T/C: 103 % of control
dose: 400.0 mg/kg/injection, schedule: Q01DX009 (ip), vehicle: saline with Tween-80
  T/C: 95 % of control

## O=S1(=O)CCC(N(N=C2CCCCC2)c2ccccc2)C1 (configuration not stated)
dose: 50.0 mg/kg/injection, schedule: Q01DX009 (ip), vehicle: Klucel (hydroxypropylcellulose) (HPC)
  T/C: 95 % of control
[5]
  T/C: 98 % of control
[7]
  T/C: 106 % of control
[9]
  T/C: 95 % of control

## COc1cccc(Oc2c(O)c3ccc(OC)cc3oc2=O)c1
[13]
  T/C: 100 % of control
[14]
  T/C: 97 % of control
[15]
  T/C: 97 % of control

## O=C(O)C1CCCC2C(O)CCC(=O)C12 (configuration not stated)
[13]
  T/C: 95 % of control and 107 % of control
dose: 100.0 mg/kg/injection, schedule: Q01DX009 (ip), vehicle: saline sonified
  T/C: 98 % of control
dose: 100.0 mg/kg/injection, schedule: Q04DX003 (ip), vehicle: saline sonified
  T/C: 100 % of control
[14]
  T/C: 104 % of control and 101 % of control
dose: 200.0 mg/kg/injection, schedule: Q01DX009 (ip), vehicle: saline sonified
  T/C: 102 % of control
dose: 200.0 mg/kg/injection, schedule: Q04DX003 (ip), vehicle: saline sonified
  T/C: 92 % of control
[15]
  T/C: 107 % of control and 96 % of control
dose: 400.0 mg/kg/injection, schedule: Q01DX009 (ip), vehicle: saline sonified
  T/C: 93 % of control
dose: 400.0 mg/kg/injection, schedule: Q04DX003 (ip), vehicle: saline sonified
  T/C: 95 % of control

## CCCCC(N)P(=O)(O)O (configuration not stated)
dose: 25.0 mg/kg/injection, schedule: Q04DX002 (ip), vehicle: saline
  T/C: 110 % of control
[16]
  T/C: 105 % of control
[17]
  T/C: 95 % of control

## CC(=O)CCN1C(=O)c2ccccc2C1=O
[5]
  T/C: 100 % of control
[6]
  T/C: 101 % of control
[7]
  T/C: 104 % of control
[8]
  T/C: 90 % of control
[9]
  T/C: 97 % of control
[10]
  T/C: 96 % of control

## CC(C)c1nnnn1C12CC3CC(CC(C3)C1)C2
[13]
  T/C: 101 % of control
[14]
  T/C: 101 % of control
[15]
  T/C: 93 % of control

## c1ccc(N2CCN(c3ccccc3)CC2)cc1
[11]
  T/C: 98 % of control
[12]
  T/C: 86 % of control

## O=NN(CCCl)C(=O)NC1C2CC3CC(C2)CC1C3 (configuration not stated)
dose: 12.0 mg/kg/injection, schedule: Q01DX001 (ip), vehicle: other
  T/C: 110 % of control
dose: 18.0 mg/kg/injection, schedule: Q01DX001 (ip), vehicle: other
  T/C: 114 % of control
dose: 26.0 mg/kg/injection, schedule: Q01DX001 (ip), vehicle: other
  T/C: 123 % of control
dose: 40.0 mg/kg/injection, schedule: Q01DX001 (ip), vehicle: other
  T/C: 163 % of control
dose: 60.0 mg/kg/injection, schedule: Q01DX001 (ip), vehicle: other
  T/C: 244 % of control
dose: 93.0 mg/kg/injection, schedule: Q01DX001 (ip), vehicle: other
  T/C: 323 % of control
dose: 187.0 mg/kg/injection, schedule: Q01DX001 (ip), vehicle: other
  T/C: 340 % of control

## Cc1ccc(S(=O)(=O)C2CCCCC2)cc1
dose: 50.0 mg/kg/injection, schedule: Q01DX001 (ip), vehicle: carboxymethylcellulose (CMC)
  T/C: 96 % of control
dose: 100.0 mg/kg/injection, schedule: Q01DX001 (ip), vehicle: carboxymethylcellulose (CMC)
  T/C: 107 % of control
[4]
  T/C: 102 % of control
dose: 400.0 mg/kg/injection, schedule: Q01DX001 (ip), vehicle: carboxymethylcellulose (CMC)
  T/C: 102 % of control

## c1ccc2nc3nc4ccccc4nc3nc2c1
dose: 5.0 mg/kg/injection, schedule: Q04DX002 (ip), vehicle: gum acacia
  T/C: 90 % of control
dose: 10.0 mg/kg/injection, schedule: Q04DX002 (ip), vehicle: gum acacia
  T/C: 93 % of control
dose: 20.0 mg/kg/injection, schedule: Q04DX002 (ip), vehicle: gum acacia
  T/C: 93 % of control and 94 % of control
dose: 75.0 mg/kg/injection, schedule: Q01DX001 (ip), vehicle: other
  T/C: 102 % of control
dose: 100.0 mg/kg/injection, schedule: Q04DX002 (ip), vehicle: saline with Tween-80
  T/C: 106 % of control
dose: 150.0 mg/kg/injection, schedule: Q01DX001 (ip), vehicle: other
  T/C: 98 % of control
dose: 200.0 mg/kg/injection, schedule: Q04DX002 (ip), vehicle: saline with Tween-80
  T/C: 100 % of control
dose: 300.0 mg/kg/injection, schedule: Q01DX001 (ip), vehicle: other
  T/C: 103 % of control
dose: 400.0 mg/kg/injection, schedule: Q04DX002 (ip), vehicle: saline with Tween-80
  T/C: 91 % of control

## CC(C)N(c1ccc(C(=NO)c2ccc(N(C(C)C)C(C)C)cc2)cc1)C(C)C
[6]
  T/C: 90 % of control
[8]
  T/C: 88 % of control
[10]
  T/C: 92 % of control

## Cc1ccccc1C1=CCCCCC1
dose: 50.0 mg/kg/injection, schedule: Q01DX001 (ip), vehicle: saline
  T/C: 93 % of control
[13]
  T/C: 93 % of control
[14]
  T/C: 98 % of control
[15]
  T/C: 107 % of control

## NC1(CSS(=O)(=O)O)CCN1 (configuration not stated)
dose: 10.0 mg/kg/injection, schedule: Q04DX002 (ip), vehicle: saline
  T/C: 106 % of control
dose: 20.0 mg/kg/injection, schedule: Q04DX002 (ip), vehicle: saline
  T/C: 98 % of control
dose: 40.0 mg/kg/injection, schedule: Q04DX002 (ip), vehicle: saline
  T/C: 109 % of control

## Nc1ncnc2nc[nH]c12.[Tl]
dose: 3.12 mg/kg/injection, schedule: Q01DX009 (ip), vehicle: water
  T/C: 95 % of control
dose: 3.12 mg/kg/injection, schedule: Q04DX003 (ip), vehicle: water
  T/C: 103 % of control
dose: 6.25 mg/kg/injection, schedule: Q01DX009 (ip), vehicle: water
  T/C: 95 % of control
dose: 6.25 mg/kg/injection, schedule: Q04DX003 (ip), vehicle: water
  T/C: 108 % of control
dose: 12.5 mg/kg/injection, schedule: Q04DX003 (ip), vehicle: water
  T/C: 105 % of control

## Cc1ccc(-c2ccns2)cc1
[18]
  T/C: 105 % of control
[13]
  T/C: 100 % of control
[19]
  T/C: 108 % of control
[14]
  T/C: 104 % of control
[20]
  T/C: 103 % of control
[15]
  T/C: 104 % of control

## COC(=O)C1C2OC(C3OC32)C1C(=O)OC (configuration not stated)
[2]
  T/C: 103 % of control
[3]
  T/C: 104 % of control
[21]
  T/C: 95 % of control

## COc1cccc(/C=N\O)c1
[1]
  T/C: 98 % of control
[18]
  T/C: 95 % of control
[2]
  T/C: 100 % of control
[19]
  T/C: 95 % of control
[3]
  T/C: 96 % of control
[20]
  T/C: 101 % of control
[21]
  T/C: 95 % of control
dose: 400.0 mg/kg/injection, schedule: Q04DX003 (ip), vehicle: saline
  T/C: 95 % of control

## CCOC(=O)c1ccc(NS(C)(=O)=O)cc1
[5]
  T/C: 95 % of control
[6]
  T/C: 114 % of control
[7]
  T/C: 95 % of control
[8]
  T/C: 102 % of control
[9]
  T/C: 92 % of control
[10]
  T/C: 100 % of control

## CCOC(=O)N1CC2CCc3c(ccc4ccccc34)N2C1=O (configuration not stated)
dose: 100.0 mg/kg/injection, schedule: Q01DX001 (ip), vehicle: other
  T/C: 97 % of control
dose: 200.0 mg/kg/injection, schedule: Q01DX001 (ip), vehicle: other
  T/C: 92 % of control
dose: 400.0 mg/kg/injection, schedule: Q01DX001 (ip), vehicle: other
  T/C: 95 % of control

## CCSC(SCC)C(N)C(O)C(O)C(O)CO (configuration not stated)
[16]
  T/C: 103 % of control
[17]
  T/C: 103 % of control
dose: 200.0 mg/kg/injection, schedule: Q04DX002 (ip), vehicle: saline
  T/C: 109 % of control

## CCCC(C(=O)c1ccc(OC)cc1)C(O)(C(F)(F)F)C(F)(F)F (configuration not stated)
[6]
  T/C: 91 % of control
[8]
  T/C: 98 % of control
[10]
  T/C: 100 % of control
